In the kinase profiling compilation of Christmann-Franck et al. (2016):

Legend:
Experiment in all cases: radiometric filter-binding kinase assay
TBK1 (human) = TBK1 (human) (UniProt Q9UHD2)
[1] = tested on: AKT2 (human), P31751 [S474D]
MAPK8 (human) = MAPK8 (human) (UniProt P45983)
FLT1 (human) = FLT1 (human) (UniProt P17948)
MAPK10 (human) = MAPK10 (human) (UniProt P53779)
MAPK11 (human) = MAPK11 (human) (UniProt Q15759)
ROCK2 (rat) = settings: accession and sequence are those of the human protein
RPS6KA3 KD1 KD2 (human) = RPS6KA3 KD1 KD2 (human) (UniProt P51812)
RPS6KA3 KD1 KD2 (human), sequence (P51812 whole entry, looked up): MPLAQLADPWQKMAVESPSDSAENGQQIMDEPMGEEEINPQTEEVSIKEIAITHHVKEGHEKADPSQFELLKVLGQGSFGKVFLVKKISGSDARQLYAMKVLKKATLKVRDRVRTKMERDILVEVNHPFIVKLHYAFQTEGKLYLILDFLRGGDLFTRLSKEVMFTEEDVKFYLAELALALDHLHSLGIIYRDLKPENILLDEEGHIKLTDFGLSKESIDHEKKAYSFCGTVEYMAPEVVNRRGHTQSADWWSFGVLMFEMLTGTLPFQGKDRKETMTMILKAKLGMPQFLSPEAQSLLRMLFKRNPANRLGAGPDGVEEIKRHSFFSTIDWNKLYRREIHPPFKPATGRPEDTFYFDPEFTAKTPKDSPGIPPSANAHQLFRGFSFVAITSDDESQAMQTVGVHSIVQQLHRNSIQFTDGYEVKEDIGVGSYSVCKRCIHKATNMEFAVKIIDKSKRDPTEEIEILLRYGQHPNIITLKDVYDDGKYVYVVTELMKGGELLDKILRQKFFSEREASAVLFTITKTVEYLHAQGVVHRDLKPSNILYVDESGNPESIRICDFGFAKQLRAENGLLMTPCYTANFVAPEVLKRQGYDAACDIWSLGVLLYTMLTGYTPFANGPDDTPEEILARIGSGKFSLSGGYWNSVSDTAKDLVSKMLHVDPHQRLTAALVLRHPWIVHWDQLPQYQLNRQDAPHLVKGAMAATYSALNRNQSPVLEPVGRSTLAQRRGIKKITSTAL

BRSK1 (human) = BRSK1 (human) (UniProt Q8TDC3)
BRSK1 (human), sequence (Q8TDC3 whole entry, looked up): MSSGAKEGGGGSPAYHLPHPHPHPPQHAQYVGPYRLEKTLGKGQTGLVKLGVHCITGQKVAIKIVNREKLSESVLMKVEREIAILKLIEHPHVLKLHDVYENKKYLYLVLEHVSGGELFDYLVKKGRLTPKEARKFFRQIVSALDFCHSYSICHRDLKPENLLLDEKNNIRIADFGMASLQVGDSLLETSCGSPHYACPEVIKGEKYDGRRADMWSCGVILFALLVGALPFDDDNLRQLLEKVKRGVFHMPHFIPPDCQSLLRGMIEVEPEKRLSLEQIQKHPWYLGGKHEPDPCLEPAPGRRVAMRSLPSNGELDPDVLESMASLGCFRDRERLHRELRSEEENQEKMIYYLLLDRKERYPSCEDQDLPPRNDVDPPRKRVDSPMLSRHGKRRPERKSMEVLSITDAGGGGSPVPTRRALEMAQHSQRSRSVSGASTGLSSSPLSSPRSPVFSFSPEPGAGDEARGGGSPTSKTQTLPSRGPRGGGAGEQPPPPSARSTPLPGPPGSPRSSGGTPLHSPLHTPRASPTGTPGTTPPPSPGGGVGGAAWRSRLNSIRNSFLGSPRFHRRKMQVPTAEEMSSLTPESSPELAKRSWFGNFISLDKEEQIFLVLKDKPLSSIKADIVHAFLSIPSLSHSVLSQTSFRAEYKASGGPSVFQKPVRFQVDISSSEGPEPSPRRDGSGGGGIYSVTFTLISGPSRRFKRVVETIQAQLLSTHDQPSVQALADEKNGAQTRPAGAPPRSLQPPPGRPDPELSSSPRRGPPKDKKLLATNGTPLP

PAK7 (human) = PAK7 (human) (UniProt Q9P286)
PRKCA (human) = PRKCA (human) (UniProt P17252)
RPS6KA1 KD1 KD2 (human) = RPS6KA1 KD1 KD2 (human) (UniProt Q15418)
EPHB3 (human) = EPHB3 (human) (UniProt P54753)
MAP3K9 (human) = MAP3K9 (human) (UniProt P80192)
MAPK15 (human) = MAPK15 (human) (UniProt Q8TD08)
PAK4 (human) = PAK4 (human) (UniProt O96013)
HIPK1 (human) = HIPK1 (human) (UniProt Q86Z02)
HIPK1 (human), sequence (Q86Z02 whole entry, looked up): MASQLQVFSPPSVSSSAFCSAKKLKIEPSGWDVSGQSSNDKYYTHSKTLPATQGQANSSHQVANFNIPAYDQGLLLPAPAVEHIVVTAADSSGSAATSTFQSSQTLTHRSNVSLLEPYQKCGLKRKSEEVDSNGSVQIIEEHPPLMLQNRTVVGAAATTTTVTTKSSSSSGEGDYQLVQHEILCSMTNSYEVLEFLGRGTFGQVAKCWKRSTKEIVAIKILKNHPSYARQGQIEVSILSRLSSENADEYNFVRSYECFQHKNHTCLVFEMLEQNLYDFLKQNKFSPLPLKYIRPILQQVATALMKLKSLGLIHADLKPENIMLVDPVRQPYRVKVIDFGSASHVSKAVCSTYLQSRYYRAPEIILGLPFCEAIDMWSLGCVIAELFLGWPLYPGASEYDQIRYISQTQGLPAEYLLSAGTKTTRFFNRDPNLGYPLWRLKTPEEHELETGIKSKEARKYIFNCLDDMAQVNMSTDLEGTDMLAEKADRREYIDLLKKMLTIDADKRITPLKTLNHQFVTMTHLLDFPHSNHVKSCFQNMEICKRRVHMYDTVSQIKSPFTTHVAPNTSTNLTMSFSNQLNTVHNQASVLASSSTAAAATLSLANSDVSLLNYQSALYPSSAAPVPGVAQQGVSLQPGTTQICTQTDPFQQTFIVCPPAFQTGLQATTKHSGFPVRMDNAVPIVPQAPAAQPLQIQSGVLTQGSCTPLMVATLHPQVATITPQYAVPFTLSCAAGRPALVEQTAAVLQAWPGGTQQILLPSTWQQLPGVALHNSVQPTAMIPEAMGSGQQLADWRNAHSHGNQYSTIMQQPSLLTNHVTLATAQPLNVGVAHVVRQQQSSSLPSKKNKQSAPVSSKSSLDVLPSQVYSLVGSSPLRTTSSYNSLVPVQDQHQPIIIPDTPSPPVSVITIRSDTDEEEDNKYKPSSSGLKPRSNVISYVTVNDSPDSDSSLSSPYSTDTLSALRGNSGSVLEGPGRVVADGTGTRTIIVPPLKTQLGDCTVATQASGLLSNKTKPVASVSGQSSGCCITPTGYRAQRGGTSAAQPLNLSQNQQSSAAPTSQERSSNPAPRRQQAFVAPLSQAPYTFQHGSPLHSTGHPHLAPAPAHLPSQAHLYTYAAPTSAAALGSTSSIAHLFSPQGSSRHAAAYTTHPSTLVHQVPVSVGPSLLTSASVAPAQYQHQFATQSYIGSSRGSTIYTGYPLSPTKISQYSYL

PIM2 (human) = PIM2 (human) (UniProt Q9P1W9)
PIM2 (human), sequence (Q9P1W9 whole entry, looked up): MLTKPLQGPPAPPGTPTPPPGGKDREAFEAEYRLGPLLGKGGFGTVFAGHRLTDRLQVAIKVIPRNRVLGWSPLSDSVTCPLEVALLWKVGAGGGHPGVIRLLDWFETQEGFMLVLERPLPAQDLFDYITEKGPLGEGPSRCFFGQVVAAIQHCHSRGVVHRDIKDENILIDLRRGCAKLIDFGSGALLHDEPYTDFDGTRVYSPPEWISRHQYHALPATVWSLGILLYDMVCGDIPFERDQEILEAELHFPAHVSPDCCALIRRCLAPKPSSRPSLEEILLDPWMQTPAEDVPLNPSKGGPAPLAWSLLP

DYRK2 (human) = DYRK2 (human) (UniProt Q92630)
NUAK1 (human) = NUAK1 (human) (UniProt O60285)
IKBKE (human) = IKBKE (human) (UniProt Q14164)
IKBKE (human), sequence (Q14164 whole entry, looked up): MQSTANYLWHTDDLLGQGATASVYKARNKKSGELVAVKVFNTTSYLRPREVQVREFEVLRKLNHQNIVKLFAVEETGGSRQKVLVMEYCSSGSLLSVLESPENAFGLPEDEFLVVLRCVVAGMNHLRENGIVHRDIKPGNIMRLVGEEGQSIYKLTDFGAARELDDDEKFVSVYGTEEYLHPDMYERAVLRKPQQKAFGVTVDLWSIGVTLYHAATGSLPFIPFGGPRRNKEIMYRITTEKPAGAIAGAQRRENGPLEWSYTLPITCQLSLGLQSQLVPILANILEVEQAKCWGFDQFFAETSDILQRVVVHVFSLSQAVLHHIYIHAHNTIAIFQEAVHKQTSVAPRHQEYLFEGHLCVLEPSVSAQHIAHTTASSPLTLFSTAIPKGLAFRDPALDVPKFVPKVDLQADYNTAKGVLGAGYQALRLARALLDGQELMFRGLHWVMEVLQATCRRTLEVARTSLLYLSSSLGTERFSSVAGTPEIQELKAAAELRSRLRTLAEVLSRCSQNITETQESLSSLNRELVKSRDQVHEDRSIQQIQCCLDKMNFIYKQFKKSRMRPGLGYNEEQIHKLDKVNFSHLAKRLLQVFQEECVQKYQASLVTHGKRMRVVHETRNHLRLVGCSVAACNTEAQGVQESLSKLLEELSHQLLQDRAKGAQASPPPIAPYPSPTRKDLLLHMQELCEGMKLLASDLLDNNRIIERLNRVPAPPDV

STK3 (human) = STK3 (human) (UniProt Q13188)
[2] = tested on: AKT1 (human), P31749 [S473D]
MAPKAPK5 (human) = MAPKAPK5 (human) (UniProt Q8IW41)
[3] = target: PRKAA1 PRKAB2 PRKAG1 (human) (UniProt O43741+Q13131+P54619)
CAMKK2 (human) = CAMKK2 (human) (UniProt Q96RR4)
MAPKAPK2 (human) = MAPKAPK2 (human) (UniProt P49137)
PRKACA (human) = PRKACA (human) (UniProt P17612)
[4] = tested on: PAK2 (human), Q13177 [T402E]

FLT1 (human), sequence (P17948 whole entry, looked up): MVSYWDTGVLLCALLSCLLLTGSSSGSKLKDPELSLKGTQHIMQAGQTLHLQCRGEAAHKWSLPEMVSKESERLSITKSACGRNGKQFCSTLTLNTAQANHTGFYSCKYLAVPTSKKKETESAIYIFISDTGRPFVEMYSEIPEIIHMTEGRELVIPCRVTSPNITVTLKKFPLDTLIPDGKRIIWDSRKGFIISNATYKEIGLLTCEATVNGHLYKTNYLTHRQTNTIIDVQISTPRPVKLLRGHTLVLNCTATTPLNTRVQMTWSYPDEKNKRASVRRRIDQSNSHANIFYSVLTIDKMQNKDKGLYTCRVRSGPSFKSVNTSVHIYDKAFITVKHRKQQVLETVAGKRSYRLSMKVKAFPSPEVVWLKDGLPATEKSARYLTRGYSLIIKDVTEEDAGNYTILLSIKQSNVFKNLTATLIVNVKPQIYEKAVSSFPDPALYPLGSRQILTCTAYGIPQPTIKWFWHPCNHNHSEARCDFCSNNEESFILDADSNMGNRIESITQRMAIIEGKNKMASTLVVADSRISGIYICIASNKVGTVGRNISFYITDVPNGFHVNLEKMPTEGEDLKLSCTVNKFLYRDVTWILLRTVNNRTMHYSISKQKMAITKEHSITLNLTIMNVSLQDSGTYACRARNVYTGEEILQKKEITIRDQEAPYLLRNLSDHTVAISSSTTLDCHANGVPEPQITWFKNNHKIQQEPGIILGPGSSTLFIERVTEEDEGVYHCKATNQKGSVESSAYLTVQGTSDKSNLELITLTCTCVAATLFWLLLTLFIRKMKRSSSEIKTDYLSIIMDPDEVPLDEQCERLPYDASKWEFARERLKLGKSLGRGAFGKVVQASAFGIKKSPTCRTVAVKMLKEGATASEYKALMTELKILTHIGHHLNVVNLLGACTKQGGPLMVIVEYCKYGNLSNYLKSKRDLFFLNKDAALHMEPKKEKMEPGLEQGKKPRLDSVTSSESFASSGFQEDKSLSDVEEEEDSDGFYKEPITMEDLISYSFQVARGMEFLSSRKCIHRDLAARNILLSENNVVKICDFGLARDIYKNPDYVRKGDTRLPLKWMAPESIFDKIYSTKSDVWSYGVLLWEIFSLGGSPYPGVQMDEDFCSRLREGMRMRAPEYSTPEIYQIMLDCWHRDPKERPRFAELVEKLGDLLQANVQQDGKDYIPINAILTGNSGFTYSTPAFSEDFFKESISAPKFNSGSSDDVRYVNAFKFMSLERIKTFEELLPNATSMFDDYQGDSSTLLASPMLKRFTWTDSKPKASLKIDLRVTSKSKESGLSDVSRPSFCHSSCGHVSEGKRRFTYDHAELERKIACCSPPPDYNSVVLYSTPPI

For `CNc1nc(-c2ccc3c(N)n[nH]c3c2)cc(N2C[C@@H](C(=O)NC3CCCCC3)CC[C@H]2C)n1`, the residual activity (TBK1 (human); compound 0.01 µM) was 110%, the residual activity (TBK1 (human); compound 0.1 µM) was 115% and the residual activity (TBK1 (human); compound 1.0 µM) was 109%. It also gave a residual activity ([1]; compound 0.01 µM) of 125%, a residual activity ([1]; compound 0.1 µM) of 118% and a residual activity ([1]; compound 1.0 µM) of 100%. The residual activity (MAPK8 (human); compound 0.01 µM) was 92%, the residual activity (MAPK8 (human); compound 0.1 µM) was 108% and the residual activity (MAPK8 (human); compound 1.0 µM) was 99%. It also gave a residual activity (FLT1 (human); compound 0.01 µM) of 98%, a residual activity (FLT1 (human); compound 0.1 µM) of 108% and a residual activity (FLT1 (human); compound 1.0 µM) of 89%. The residual activity (MAPK10 (human); compound 0.01 µM) was 106%, the residual activity (MAPK10 (human); compound 0.1 µM) was 106% and the residual activity (MAPK10 (human); compound 1.0 µM) was 100%. The residual activity (MAPK11 (human); compound 0.01 µM) was 113%, the residual activity (MAPK11 (human); compound 0.1 µM) was 129% and the residual activity (MAPK11 (human); compound 1.0 µM) was 109%. The residual activity (ROCK2 (rat); compound 0.01 µM) was 96%, the residual activity (ROCK2 (rat); compound 0.1 µM) was 92% and the residual activity (ROCK2 (rat); compound 1.0 µM) was 70%. The residual activity (RPS6KA3 KD1 KD2 (human); compound 0.01 µM) was 96%, the residual activity (RPS6KA3 KD1 KD2 (human); compound 0.1 µM) was 97% and the residual activity (RPS6KA3 KD1 KD2 (human); compound 1.0 µM) was 79%. It also gave a residual activity (BRSK1 (human); compound 0.01 µM) of 110%, a residual activity (BRSK1 (human); compound 0.1 µM) of 95% and a residual activity (BRSK1 (human); compound 1.0 µM) of 57%. The residual activity (PAK7 (human); compound 0.01 µM) was 97%, the residual activity (PAK7 (human); compound 0.1 µM) was 101% and the residual activity (PAK7 (human); compound 1.0 µM) was 94%. For the same molecule, the residual activity (PRKCA (human); compound 0.01 µM) was 104%, the residual activity (PRKCA (human); compound 0.1 µM) was 105% and the residual activity (PRKCA (human); compound 1.0 µM) was 94%. It also gave a residual activity (RPS6KA1 KD1 KD2 (human); compound 0.01 µM) of 123%, a residual activity (RPS6KA1 KD1 KD2 (human); compound 0.1 µM) of 113% and a residual activity (RPS6KA1 KD1 KD2 (human); compound 1.0 µM) of 94%. It also gave a residual activity (EPHB3 (human); compound 0.01 µM) of 106%, a residual activity (EPHB3 (human); compound 0.1 µM) of 107% and a residual activity (EPHB3 (human); compound 1.0 µM) of 91%. The residual activity (MAP3K9 (human); compound 0.01 µM) was 110%, the residual activity (MAP3K9 (human); compound 0.1 µM) was 111% and the residual activity (MAP3K9 (human); compound 1.0 µM) was 107%. For the same molecule, the residual activity (MAPK15 (human); compound 0.01 µM) was 106%, the residual activity (MAPK15 (human); compound 0.1 µM) was 117% and the residual activity (MAPK15 (human); compound 1.0 µM) was 107%. For the same molecule, the residual activity (PAK4 (human); compound 0.01 µM) was 108%, the residual activity (PAK4 (human); compound 0.1 µM) was 117% and the residual activity (PAK4 (human); compound 1.0 µM) was 106%. It also gave a residual activity (HIPK1 (human); compound 0.01 µM) of 102%, a residual activity (HIPK1 (human); compound 0.1 µM) of 105% and a residual activity (HIPK1 (human); compound 1.0 µM) of 102%. For the same molecule, the residual activity (PIM2 (human); compound 0.01 µM) was 97%, the residual activity (PIM2 (human); compound 0.1 µM) was 100% and the residual activity (PIM2 (human); compound 1.0 µM) was 97%. It also gave a residual activity (DYRK2 (human); compound 0.01 µM) of 100%, a residual activity (DYRK2 (human); compound 0.1 µM) of 108% and a residual activity (DYRK2 (human); compound 1.0 µM) of 102%. For the same molecule, the residual activity (NUAK1 (human); compound 0.01 µM) was 120%, the residual activity (NUAK1 (human); compound 0.1 µM) was 105% and the residual activity (NUAK1 (human); compound 1.0 µM) was 47%. For the same molecule, the residual activity (IKBKE (human); compound 0.01 µM) was 114%, the residual activity (IKBKE (human); compound 0.1 µM) was 97% and the residual activity (IKBKE (human); compound 1.0 µM) was 74%. For the same molecule, the residual activity (STK3 (human); compound 0.01 µM) was 116%, the residual activity (STK3 (human); compound 0.1 µM) was 128% and the residual activity (STK3 (human); compound 1.0 µM) was 112%. For the same molecule, the residual activity ([2]; compound 0.01 µM) was 179%, the residual activity ([2]; compound 0.1 µM) was 117% and the residual activity ([2]; compound 1.0 µM) was 97%. For the same molecule, the residual activity (MAPKAPK5 (human); compound 0.01 µM) was 81%, the residual activity (MAPKAPK5 (human); compound 0.1 µM) was 92% and the residual activity (MAPKAPK5 (human); compound 1.0 µM) was 76%. For the same molecule, the residual activity ([3]; compound 0.01 µM) was 107%, the residual activity ([3]; compound 0.1 µM) was 111% and the residual activity ([3]; compound 1.0 µM) was 87%. The residual activity (CAMKK2 (human); compound 0.01 µM) was 112%, the residual activity (CAMKK2 (human); compound 0.1 µM) was 123% and the residual activity (CAMKK2 (human); compound 1.0 µM) was 127%. It also gave a residual activity (MAPKAPK2 (human); compound 0.01 µM) of 104%, a residual activity (MAPKAPK2 (human); compound 0.1 µM) of 111% and a residual activity (MAPKAPK2 (human); compound 1.0 µM) of 101%. The residual activity (PRKACA (human); compound 0.01 µM) was 103%, the residual activity (PRKACA (human); compound 0.1 µM) was 111% and the residual activity (PRKACA (human); compound 1.0 µM) was 98%. For the same molecule, the residual activity ([4]; compound 0.01 µM) was 105%, the residual activity ([4]; compound 0.1 µM) was 119% and the residual activity ([4]; compound 1.0 µM) was 105%.
